Data reported in patent EP4759148A1, “ADJUSTMENT OF CIRCADIAN RHYTHM” (MEIJI CO., LTD, priority 2023, dated 2025).

Legend:
per2 reporter cells = assay: circadian rhythm assay (luciferase reporter assay) using per2 reporter cells; type: cell-based, human; conditions: 5 mM fumaric acid
Protocol: Referring to the "Cell-based circadian assays" described in the article by H. Oike et al. (NPL 1), a circadian rhythm assay (luciferase reporter assay) using per2 reporter cells was performed to evaluate the action of fumaric acid on circadian rhythms.
U-2OS cells were transfected with a vector prepared by incorporating the per2 promoter region into a NanoLuc (registered trademark) luciferase vector by using transfection reagent 1 according to a standard method. After about 24 hours, the medium was replaced, and dexamethasone was added at a final concentration of 100 nM to synchronize the cells. After two hours, 1% substrate (Endurazine) was added, and the luminescence intensity of luciferase was measured every 30 minutes using a plate reader equipped with CO2 control and temperature control.
After 25 days, formed colonies were collected and seeded in a 96-well plate (1 × 10^3 cells/well). After three days, the luminescence intensity of luciferase was measured every 60 minutes using a plate reader with CO^2 control and temperature control, in the same manner as described above.
Subsequently, cell lines with minimal variation in circadian rhythm cycle and stable periodicity were selected. These selected cell lines, referred to as "per2 reporter cells" were used in the following experiments.
The prepared per2 reporter cells were seeded in a 96-well plate at a density of 5 × 10^3 cells/well. The medium used was high-glucose medium 1 supplemented with 10% fetal bovine serum (FBS), 1% penicillin-streptomycin, and hygromycin, and the cells were cultured at 37°C under 5% CO2 conditions.
After two days from culture, 100 nM dexamethasone was added, and the cells were treated for 2 hours, followed by adding a 1% substrate (Endurazine). Subsequently, the luminescence intensity of luciferase was measured every 12 minutes. For the measurement, high-glucose medium 2 supplemented with 5% FBS and 1% penicillin-streptomycin was used.
Subsequently, fumaric acid was added to the measurement medium to achieve a final concentration of 5 mM, and the luminescence intensity of luciferase was measured over time using a long-term real-time luminescence measurement system for cultured cells (WSL-1565, Kronos HT) to evaluate changes in circadian rhythm. For a control, the luminescence intensity of luciferase in per2 reporter cells cultured in measurement medium without fumaric acid was measured over time in the same manner.
In the luminescence intensity rhythms, valleys were represented by T and peaks by P, and they were labeled as P1, T1, P2, and T2 in order of appearance. Since P1 was unstable in rhythm, the circadian rhythm of per2 reporter cells was evaluated based on the phases of the valleys (T1 and T2) and peak (P2) after T1.

GPR41 gene = assay: induction of GPR41 gene expression in Caco-2 cells (real-time PCR); type: cell-based, human; conditions: 5 mM fumaric acid, 60 minutes, differentiated Caco-2 cells; Fig. 2
Protocol: Caco-2 cells were seeded in a 24-well plate at 2 × 10^5 cells/well. After 3 weeks of differentiation induction, 5 mM fumaric acid was added, and cells were collected 60 minutes later. RNA was extracted, and GPR41 gene expression levels were measured by real-time PCR.

[1] = fumaric acid-added cells versus control

## O=C(O)/C=C/C(=O)O [Fumaric Acid, fumaric acid]
per2 reporter cells; calculated from the phase difference between T1 and T2, control 29.6
  circadian rhythm cycle, T2-T1: 26.4 h
per2 reporter cells; first valley (T1) of luciferase luminescence rhythm, U-2OS per2 reporter cells, control 22.4
  phase of circadian rhythm, T1: 22.2 h
per2 reporter cells; [1]
  Difference in Cycle, T2-T1: -3.2 h
  Difference in Phase, P2: -0.6 h
  Difference in Phase, T1: -0.2 h
  Difference in Phase, T2: -3.4 h
per2 reporter cells; peak P2 of luciferase luminescence rhythm, control 34.8
  phase of circadian rhythm, P2: 34.2 h
per2 reporter cells; second valley (T2) of luciferase luminescence rhythm, control 52.0
  phase of circadian rhythm, T2: 48.6 h
GPR41 gene
  expression level of the GPR41 gene: increased
